Several values for one entry are separate records, joined by “and”; a condition that tells them apart may be missing. Identical values can stand only once. Inconclusive results and toxic doses are left out. How the source made its calls: active means survival T/C of 150% or more; inactive means T/C below 125% in these data.
Test system: CD2F1 mice, L1210 leukemia ip, survival T/C
Assay: NCI In Vivo Anticancer Drug Screen. Data for tumor model L1210 Leukemia (intraperitoneal) in CD2F1 (CDF1) mice
Conditions: higher = longer survival
How it was run: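 Read-out first: treated-group measurement over vehicle-control measurement, expressed as a ratio. Animals bore a transplanted tumor line and were dosed with compound or vehicle.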

[1] = endpoint: mean survival time, dose: 100.0 mg/kg/injection, schedule: Q01DX009 (ip), vehicle: saline with Tween-80
[2] = endpoint: mean survival time, dose: 100.0 mg/kg/injection, schedule: Q04DX003 (ip), vehicle: saline with Tween-80
[3] = endpoint: mean survival time, dose: 200.0 mg/kg/injection, schedule: Q01DX009 (ip), vehicle: saline with Tween-80
[4] = endpoint: mean survival time, dose: 200.0 mg/kg/injection, schedule: Q04DX003 (ip), vehicle: saline with Tween-80

Measured: T/C

O=C(O)c1ccc(C(=O)O)c(C(=O)O)c1.[NH-]Cc1ccccc1C[NH-].[Pt+2]
inactive: endpoint: mean survival time, dose: 5.0 mg/kg/injection, schedule: Q04DX003 (ip), vehicle: sodium bicarbonate 110 % of control | endpoint: mean survival time, dose: 10.0 mg/kg/injection, schedule: Q04DX003 (ip), vehicle: sodium bicarbonate 110 % of control | endpoint: mean survival time, dose: 20.0 mg/kg/injection, schedule: Q04DX003 (ip), vehicle: sodium bicarbonate 108 % of control | endpoint: mean survival time, dose: 40.0 mg/kg/injection, schedule: Q04DX003 (ip), vehicle: sodium bicarbonate 108 % of control | endpoint: mean survival time, dose: 80.0 mg/kg/injection, schedule: Q04DX003 (ip), vehicle: sodium bicarbonate 96 % of control

CCOC(=O)c1ccc(NC(=O)CCOc2ccccc2)cc1
inactive: [1] 92 % of control and 101 % of control | endpoint: mean survival time, dose: 100.0 mg/kg/injection, schedule: Q04DX002 (ip), vehicle: saline with Tween-80 91 % of control | [2] 86 % of control | [3] 92 % of control and 96 % of control | endpoint: mean survival time, dose: 200.0 mg/kg/injection, schedule: Q04DX002 (ip), vehicle: saline with Tween-80 86 % of control and 87 % of control | [4] 86 % of control | endpoint: mean survival time, dose: 400.0 mg/kg/injection, schedule: Q01DX009 (ip), vehicle: saline with Tween-80 89 % of control and 95 % of control | endpoint: mean survival time, dose: 400.0 mg/kg/injection, schedule: Q04DX002 (ip), vehicle: saline with Tween-80 94 % of control

Oc1ccc2c3c1OC1C(O)C=CC4C(C2)NCCC341 (stereo not drawn)
inactive: endpoint: mean survival time, dose: 25.0 mg/kg/injection, schedule: Q04DX003 (ip), vehicle: DMSO 95 % of control | endpoint: mean survival time, dose: 50.0 mg/kg/injection, schedule: Q04DX003 (ip), vehicle: DMSO 95 % of control | endpoint: mean survival time, dose: 100.0 mg/kg/injection, schedule: Q04DX003 (ip), vehicle: DMSO 106 % of control

NCc1cnc(N)nc1N
inactive: [2] 98 % of control | [4] 102 % of control

COc1ccc(CCc2nc(CCCCO)[nH]c2C)cc1OC
inactive: [1] 92 % of control

CN(C)CC#N
inactive: endpoint: mean survival time, dose: 5.0 mg/kg/injection, schedule: Q01DX009 (ip), vehicle: saline sonified 97 % of control | endpoint: mean survival time, dose: 5.0 mg/kg/injection, schedule: Q04DX003 (ip), vehicle: saline 103 % of control | endpoint: mean survival time, dose: 10.0 mg/kg/injection, schedule: Q01DX009 (ip), vehicle: saline sonified 97 % of control | endpoint: mean survival time, dose: 10.0 mg/kg/injection, schedule: Q04DX003 (ip), vehicle: saline 97 % of control | endpoint: mean survival time, dose: 20.0 mg/kg/injection, schedule: Q01DX009 (ip), vehicle: saline sonified 98 % of control | endpoint: mean survival time, dose: 20.0 mg/kg/injection, schedule: Q04DX003 (ip), vehicle: saline 95 % of control

COc1cc2c(cc1OC)C1c3cc(OC)c(OC)cc3CCN1CC2
inactive: endpoint: mean survival time, dose: 12.5 mg/kg/injection, schedule: Q01DX009 (ip), vehicle: other 103 % of control | endpoint: mean survival time, dose: 25.0 mg/kg/injection, schedule: Q01DX009 (ip), vehicle: other 94 % of control

N#CCc1nn(C2OC(CO)C(O)C2O)nc1C(N)=O (stereo not drawn)
inactive: endpoint: median survival time, dose: 8.5 mg/kg/injection, schedule: Q01DX005 (ip), vehicle: water 103 % of control | endpoint: median survival time, dose: 17.0 mg/kg/injection, schedule: Q01DX005 (ip), vehicle: water 103 % of control | endpoint: median survival time, dose: 34.0 mg/kg/injection, schedule: Q01DX005 (ip), vehicle: water 100 % of control | endpoint: median survival time, dose: 38.0 mg/kg/injection, schedule: Q01DX005 (ip), vehicle: water 97 % of control | endpoint: median survival time, dose: 136.0 mg/kg/injection, schedule: Q01DX005 (ip), vehicle: water 100 % of control

CC(/C=N/N=C(N)N)=N\N=C(N)N
inactive: endpoint: mean survival time, dose: 12.5 mg/kg/injection, schedule: Q04DX003 (ip), vehicle: Klucel (hydroxypropylcellulose) (HPC) 97 % of control | endpoint: mean survival time, dose: 25.0 mg/kg/injection, schedule: Q04DX003 (ip), vehicle: Klucel (hydroxypropylcellulose) (HPC) 98 % of control | endpoint: mean survival time, dose: 50.0 mg/kg/injection, schedule: Q04DX003 (ip), vehicle: Klucel (hydroxypropylcellulose) (HPC) 110 % of control | endpoint: mean survival time, dose: 53.6 mg/kg/injection, schedule: Q03HX024 (ip), vehicle: clinical formulation 92 % of control | endpoint: median survival time, dose: 120.0 mg/kg/injection, schedule: Q01DX009 (ip), vehicle: saline 87 % of control

O=C1[C@H]2CCC[C@H]2[C@H]2CCC[C@@H]12
inactive: endpoint: median survival time, dose: 6.25 mg/kg/injection, schedule: Q01DX009 (ip), vehicle: saline with Tween-80 98 % of control | endpoint: median survival time, dose: 12.5 mg/kg/injection, schedule: Q01DX009 (ip), vehicle: saline with Tween-80 106 % of control | endpoint: median survival time, dose: 25.0 mg/kg/injection, schedule: Q01DX009 (ip), vehicle: saline with Tween-80 98 % of control | endpoint: median survival time, dose: 50.0 mg/kg/injection, schedule: Q01DX009 (ip), vehicle: saline with Tween-80 101 % of control | endpoint: median survival time, dose: 100.0 mg/kg/injection, schedule: Q01DX009 (ip), vehicle: saline with Tween-80 106 % of control | endpoint: median survival time, dose: 200.0 mg/kg/injection, schedule: Q01DX009 (ip), vehicle: saline with Tween-80 97 % of control

Cc1cc(NC(=O)Nc2ccccc2C)no1
inactive: endpoint: mean survival time, dose: 100.0 mg/kg/injection, schedule: Q01DX001 (ip), vehicle: saline with Tween-80 106 % of control | endpoint: mean survival time, dose: 200.0 mg/kg/injection, schedule: Q01DX001 (ip), vehicle: saline with Tween-80 100 % of control | endpoint: mean survival time, dose: 400.0 mg/kg/injection, schedule: Q01DX001 (ip), vehicle: saline with Tween-80 103 % of control

CC(=O)OCCCC(C)Nc1ccnc2cc(Cl)ccc12 (stereo not drawn)
inactive: endpoint: mean survival time, dose: 50.0 mg/kg/injection, schedule: Q01DX009 (ip), vehicle: saline with Tween-80 100 % of control | [1] 96 % of control | [2] 96 % of control | [3] 96 % of control | [4] 98 % of control

CC(=O)N(C)N=Nc1ccc(C(C)C)cc1
inactive: endpoint: mean survival time, dose: 9.37 mg/kg/injection, schedule: Q04DX003 (ip), vehicle: Klucel (hydroxypropylcellulose) (HPC) 97 % of control | endpoint: median survival time, dose: 2.3 mg/kg/injection, schedule: Q01DX009 (ip), vehicle: Klucel (hydroxypropylcellulose) (HPC) 116 % of control | endpoint: median survival time, dose: 4.6 mg/kg/injection, schedule: Q01DX009 (ip), vehicle: Klucel (hydroxypropylcellulose) (HPC) 110 % of control | endpoint: median survival time, dose: 9.37 mg/kg/injection, schedule: Q01DX009 (ip), vehicle: Klucel (hydroxypropylcellulose) (HPC) 116 % of control

ClC=C(c1ccc(Cl)cc1)c1ccc(Cl)cc1
inactive: [2] 97 % of control | [4] 97 % of control | endpoint: mean survival time, dose: 400.0 mg/kg/injection, schedule: Q04DX003 (ip), vehicle: saline with Tween-80 101 % of control

CN(C)CCC(=O)C(c1ccccc1)c1ccccc1
inactive: endpoint: mean survival time, dose: 75.0 mg/kg/injection, schedule: Q01DX001 (ip), vehicle: saline 97 % of control | endpoint: mean survival time, dose: 150.0 mg/kg/injection, schedule: Q01DX001 (ip), vehicle: saline 101 % of control

C#C[C@]1(O)CC[C@H]2[C@@H]3CCc4cc(O)ccc4[C@H]3CC[C@@]21C
inactive: endpoint: median survival time, dose: 31.2 mg/kg/injection, schedule: Q01DX009 (ip), vehicle: saline with Tween-80 106 % of control | endpoint: median survival time, dose: 62.5 mg/kg/injection, schedule: Q01DX009 (ip), vehicle: saline with Tween-80 97 % of control | endpoint: median survival time, dose: 125.0 mg/kg/injection, schedule: Q01DX009 (ip), vehicle: saline with Tween-80 97 % of control | endpoint: median survival time, dose: 250.0 mg/kg/injection, schedule: Q01DX009 (ip), vehicle: saline with Tween-80 101 % of control | endpoint: median survival time, dose: 500.0 mg/kg/injection, schedule: Q01DX009 (ip), vehicle: saline with Tween-80 104 % of control

N=C(N)SSCc1ccco1
inactive: endpoint: mean survival time, dose: 5.0 mg/kg/injection, schedule: Q04DX002 (ip), vehicle: saline with Tween-80 96 % of control | endpoint: mean survival time, dose: 10.0 mg/kg/injection, schedule: Q04DX002 (ip), vehicle: saline with Tween-80 103 % of control | endpoint: mean survival time, dose: 20.0 mg/kg/injection, schedule: Q04DX002 (ip), vehicle: saline with Tween-80 100 % of control

Source: PubChem BioAssay AID256 (DTP/NCI, 2004)
